Reference: patent US9988381B2, “Five-member-heterocycle fused pyridine compounds, method of producing the same, and use thereof” (SHANGHAI INSTITUTE OF MATERIA MEDICA, CHINESE ACADEMY OF …, priority 2013, dated 2018)
Where two headings read alike, the source gives them in different places.

Tests used:
[1] = biological target: T1, c-Met kinase domain recombinant protein (Homo sapiens, UniProt P08581); assay: biochemical; details: read-out: Inhibition rate at 10 μM (%)
T1 construct: 50 μL diluted solution of c-Met kinase domain recombinant protein in reaction buffer was added to initiate the reaction
T1 sequence (P08581 1078-1345 limits assumed): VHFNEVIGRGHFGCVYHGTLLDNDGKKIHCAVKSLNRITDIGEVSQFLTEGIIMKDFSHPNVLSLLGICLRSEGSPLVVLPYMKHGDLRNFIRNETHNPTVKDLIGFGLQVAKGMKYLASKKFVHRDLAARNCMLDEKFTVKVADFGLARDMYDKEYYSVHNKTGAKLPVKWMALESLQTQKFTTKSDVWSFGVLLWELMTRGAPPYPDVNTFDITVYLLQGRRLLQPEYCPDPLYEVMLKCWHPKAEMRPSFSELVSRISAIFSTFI
Method: (§1) Enzymatic reaction substrate Poly(Glu,Tyr)4:1 was diluted to 20 μg/mL in potassium ion free PBS (10 mM sodium phosphate buffer, 150 mM NaCl, pH7.2-7.4), microplate was coated with this solution at 125 μL per well, and reacted at 37° C. for 12-16 hours. Liquid in wells was discarded. Plate washing: the plate was washed 3 times for 5 minutes each with 200 μL per well of T-PBS (potassium ion free PBS containing 0.1% Tween-20).
Into each well was added 49 μL diluted ATP solution in reaction buffer (50 mM HEPES pH 7.4, 50 mM MgCl2, 0.5 mM MnCl2, 0.2 mM Na3VO4, 1 mM DTT), and 1 μL per well of compound to be tested was added, then 50 μL diluted solution of c-Met kinase domain recombinant protein in reaction buffer was added to initiate the reaction, each test was setup with two wells of ATP free control. Reaction was performed in a 37° C. shaker (100 rpm) for 1 hour. Liquid in the wells was discarded, and the plate was washed three times with T-PBS.
Antibody PY99 was added at 100 μL per well (the antibody was 1:500 diluted in T-PBS containing 5 mg/mL BSA), incubated in a 37° C. shaker for 0.5 hour. Liquid in the wells was discarded, and the plate was washed three times with T-PBS.
Goat anti mouse secondary antibody labeled with horseradish peroxidase was added at 100 μL per well (the antibody was 1:2000 diluted in T-PBS containing 5 mg/mL BSA), incubated in a 37° C. shaker for 0.5 hour. Liquid in the wells was discarded, and the plate was washed three times with T-PBS.
Reaction was terminated by adding 50 μL per well of 2M H2SO4, the plate was read at 490 nm using a VERSAmax microplate reader with tunable wavelength.
(§2) Inhibition rate of the sample was calculated using the following equation: […]

[2] = biological target: T1, c-Met kinase domain recombinant protein; assay: biochemical; details: for inhibition at 10 µM: read-out: Average inhibition rate at 10 μM (%); for inhibition at 1 µM: read-out: Average inhibition rate at 1 μM (%); for inhibition at 0.1 µM: read-out: Average inhibition rate at 0.1 μM (%)
Method: as §1, with “discarded, then” for “discarded. Plate washing:”, “(PBS” for “(potassium ion free PBS”
Into each well was added 50 μL diluted ATP solution in reaction buffer (50 mM HEPES pH 7.4, 50 mM MgCl2, 0.5 mM MnCl2, 0.2 mM Na3VO4, 1 mM DTT), the final concentration was 5 μM. Test compound was diluted in DMSO to proper concentration, added at 1 μL per well or corresponding level of DMSO (negative control wells), then 49 μL diluted solution of c-Met kinase domain recombinant protein in reaction buffer was added to initiate the reaction, each test was setup with two wells of ATP free control. Reaction was performed in a 37° C. shaker (100 rpm) for 1 hour. The plate was washed three times with T-PBS. Primary antibody PY99 diluted solution was added at 100 μL per well, incubated in a 37° C. shaker for 0.5 hour.
The plate was washed three times with T-PBS. Goat anti mouse secondary antibody labeled with horseradish peroxidase was added at 100 μL per well, incubated in a 37° C. shaker for 0.5 hour. The plate was washed three times with T-PBS. […] Reaction was terminated by adding 50 μL per well of 2M H2SO4, the plate was read at 490 nm using a SPECTRA MAX 190 microplate reader with tunable wavelength.
as §2
IC50 was calculated by fitting the data for a four parameter fit using inhibition curve.

inhibition at 10 µM [1]	inhibition at 10 µM [2]	inhibition at 1 µM [2]	inhibition at 0.1 µM [2]	IC50 [2]	Compound
88.1%	88.1%				Cn1cc(-c2cnc3ccn(S(=O)(=O)c4ccccc4[N+](=O)[O-])c3c2)cn1 [Compound 1, 1-(2-nitrobenzenesulfonyl)-6-[(1-methyl)-4-pyrazolyl]-1-H-pyrrolo[3,2-b]pyridine]
92.8%	92.8%	7%			Cn1cc(-c2cnc3[nH]nc(S(=O)(=O)c4ccccc4[N+](=O)[O-])c3c2)cn1 [Compound 2, 3-(2-nitrobenzenesulfonyl)-5-[(1-methyl)-4-pyrazolyl]-1-H-pyrazolo[3,4-b]pyridine]
84.6%	84.6%				Cn1cc(-c2cnc3cnn(S(=O)(=O)c4ccccc4[N+](=O)[O-])c3c2)cn1 [Compound 3, 1-(2-nitrobenzenesulfonyl)-6-[(1-methyl)-4-pyrazolyl]-1-H-pyrazolo[4,3-b]pyridine]
44.1%	44.1%				Cn1cc(-c2cnc3cnn(S(=O)(=O)c4ccccc4)c3c2)cn1 [Compound 4, 1-benzenesulfonyl-6-[(1-methyl)-4-pyrazolyl]-1-H-pyrazolo[4,3-b]pyridine]
57.5%	57.5%	33.8%	2.1%		Cn1cc(-c2cnc3cnn(S(=O)(=O)c4cccc(F)c4)c3c2)cn1 [Compound 5, 1-(3-fluorobenzenesulfonyl)-6-[(1-methyl)-4-pyrazolyl]-1-H-pyrazolo[4,3-b]pyridine]
34.4%	34.4%				Cn1cc(-c2cnc3cnn(S(=O)(=O)c4ccccc4F)c3c2)cn1 [Compound 6, 1-(2-fluorobenzenesulfonyl)-6-[(1-methyl)-4-pyrazolyl]-1-H-pyrazolo[4,3-b]pyridine]
40.7%	40.7%				Cn1cc(-c2cnc3cnn(S(=O)(=O)c4ccc(F)cc4)c3c2)cn1 [Compound 7, 1-(4-fluorobenzenesulfonyl)-6-[(1-methyl)-4-pyrazolyl]-1-H-pyrazolo[4,3-b]pyridine]
		40%			O=S(=O)(c1c[nH]c2ncc(-c3cccc(Cl)c3)cc12)n1ncc2cccnc21 [Example 109, 1-[(3-chlorophenyl)-1-H-pyrrolo[2,3-b]pyridine-3-sulfonyl]-1-H-pyrazolo[3,4-b]pyridine]
		13.5%			O=S(=O)(c1c[nH]c2ncc(-c3ccc(N4CCOCC4)cc3)cc12)n1ncc2cccnc21 [Example 110, 1-[(4-morpholinylphenyl)-1-H-pyrrolo[2,3-b]pyridine-3-sulfonyl]-1-H-pyrazolo[3,4-b]pyridine]
		63.3%	28.6%		Cn1cc(-c2cnc3cnn(S(=O)(=O)c4cccc5ccccc45)c3c2)cn1 [Example 111, 1-(naphthalene-1-sulfonyl)-6-[(1-methyl)-4-pyrazolyl]-1-H-pyrazolo[4,3-b]pyridine]
		48.8%			Cn1cc(-c2cnc3cnn(S(=O)(=O)c4ccc5ccccc5c4)c3c2)cn1 [Example 112, 1-(naphthalene-2-sulfonyl)-6-[(1-methyl)-4-pyrazolyl]-1-H-pyrazolo[4,3-b]pyridine]
		30.4%			Nc1ccc2ncc(S(=O)(=O)n3ncc4ncc(-c5cc(Cl)cc(Cl)c5)cc43)n2c1 [Example 114, 1-[(6-amino-imidazo[1,2-a]pyridine)-3-sulfonyl]-6-(3,5-dichlorophenyl)-1-H-pyrazolo[4,3-b]pyridine]
		95.7%	46.6%		O=[N+]([O-])c1ccc2ncc(S(=O)(=O)n3ncc4ncc(-c5ccc(C(F)(F)F)cc5)cc43)n2c1 [Example 115, 1-[(6-nitro-imidazo[1,2-a]pyridine)-3-sulfonyl]-6-(4-trifluoromethylphenyl)-1-H-pyrazolo[4,3-b]pyridine]
		84.6%	70.8%	3.6 ± 0.6 nM	O=[N+]([O-])c1ccc2ncc(S(=O)(=O)n3ncc4ncc(-c5cc(F)c(F)c(F)c5)cc43)n2c1 [Example 116, 1-[(6-nitro-imidazo[1,2-a]pyridine)-3-sulfonyl]-6-(3,4,5-trifluorophenyl)-1-H-pyrazolo[4,3-b]pyridine]
		15.8%			Nc1ccc2ncc(S(=O)(=O)n3ncc4ncc(-c5ccccc5)cc43)n2c1 [Example 117, 1-[(6-amino-imidazo[1,2-a]pyridine)-3-sulfonyl]-6-phenyl-1-H-pyrazolo[4,3-b]pyridine]
		75.5%	62.7%		Nc1ccc2ncc(S(=O)(=O)n3ncc4ncc(-c5ccc(F)cc5)cc43)n2c1 [Example 118, 1-[(6-amino-imidazo[1,2-a]pyridine)-3-sulfonyl]-6-(4-fluorophenyl)-1-H-pyrazolo[4,3-b]pyridine]
		26.4%			CCCCNc1ccc2ncc(S(=O)(=O)n3ncc4ncc(-c5cnn(C)c5)cc43)n2c1 [Example 119, 1-[(6-n-butylamino-imidazo[1,2-a]pyridine)-3-sulfonyl]-6-[(1-methyl)-4-pyrazolyl]-1-H-pyrazolo[4,3-b]pyridine]
		28.7%			CC(=O)Nc1ccc2ncc(S(=O)(=O)n3ncc4ncc(-c5cnn(C)c5)cc43)n2c1 [Example 120, 1-[(6-acetylamino-imidazo[1,2-a]pyridine)-3-sulfonyl]-6-[(1-methyl)-4-pyrazolyl]-1-H-pyrazolo[4,3-b]pyridine]
		100%	72.9%	190 ± 32.7 nM	COc1ccc2ncc(S(=O)(=O)n3ncc4ncc(-c5cncc6ccccc56)cc43)n2c1 [Example 122, 1-[(6-methoxy-imidazo[1,2-a]pyridine)-3-sulfonyl]-6-(4-isoquinolinyl)-1-H-pyrazolo[4,3-b]pyridine]
		99.3%	87%	51.5 ± 6 nM	COc1ccc2cc(-c3cnc4cnn(S(=O)(=O)c5cnc6ccc(OC)cn56)c4c3)ccc2c1 [Example 123, 1-[(6-methoxy-imidazo[1,2-a]pyridine)-3-sulfonyl]-6-(6-methoxy-2-naphthyl)-1-H-pyrazolo[4,3-b]pyridine]
		99.3%	84.5%	55.2 ± 5.6 nM	COc1ccc2ncc(S(=O)(=O)n3ncc4ncc(-c5cccc(C(F)(F)F)c5)cc43)n2c1 [Example 125, 1-[(6-methoxy-imidazo[1,2-a]pyridine)-3-sulfonyl]-6-(3-trifluoromethylphenyl)-1-H-pyrazolo[4,3-b]pyridine]
		99%	93.9%	30 ± 3.3 nM	O=S(=O)(c1cnc2ccc(O)cn12)n1ncc2ncc(-c3ccccc3)cc21 [Example 127, 1-[(6-hydroxy-imidazo[1,2-a]pyridine)-3-sulfonyl]-6-phenyl-1H-pyrazolo[4,3-b]pyridine]
		90.8%	16.1%		CCOC(=O)c1cnc2cnn(S(=O)(=O)c3cnc4ccc(Br)cn34)c2c1 [Example 130, 1-[(6-bromo-imidazo[1,2-a]pyridine)-3-sulfonyl]-6-ethoxycarbonyl-1-H-pyrazolo[4,3-b]pyridine]
		83.6%	75.1%		O=C(Nc1cnc2cnn(S(=O)(=O)c3cnc4ccc(Br)cn34)c2c1)c1ccccc1 [Example 131, 1-[(6-bromo-imidazo[1,2-a]pyridine)-3-sulfonyl]-6-benzamido-1-H-pyrazolo[4,3-b]pyridine]
		56.9%	66.8%		COc1cccc(C(=O)Nc2cnc3cnn(S(=O)(=O)c4cnc5ccc(OC)cn45)c3c2)c1 [Example 134, 1-[(6-methoxy-imidazo[1,2-a]pyridine)-3-sulfonyl]-6-(3-methoxybenzamido)-1-H-pyrazolo[4,3-b]pyridine]
